# Test results taken from patent publication US4139526A, “Somatostatin analogs” (Merck & Co., Inc., priority 1977, dated 1979).
# Assays:
# [1] = test system: pentagastrin evoked gastric secretion; assay: Pentagastrin evoked gastric secretion in chronic fistula beagle dogs; format: in vivo; conditions: 0.8 γ/kg./min. infused 0-60 min.
# Procedure: The effect of somatostatin and its analogs on gastric secretion were determined by the following method:
# Compounds were tested for their ability to inhibit pentagastrin evoked gastric secretion in the chronic fistula dog. Female beagle dogs with a chronic gastric fistula were given pentagastrin (2.5 μg./kg./hour, i.v. from -60 to 120 min.) and gastric outputs were collected via the fistula cannula. Samples were analyzed at 30 minute intervals for volume (ml.) and titratable acid (mEq/L) (titration […] with 0.01N NaOH); total acid output (mEq) was calculated as the product of output volume and acid concentration. Test compounds were infused at a constant rate from 0 to 60 minutes. Data have been expressed as percent change of total acid output relative to a placebo trial in the same animals.
# growth hormone release = assay: Inhibition of pentobarbital stimulated growth hormone release in vivo; design: species or system rats; conditions: somatostatin = 1; subcutaneous injection, blood after 15 minutes; limits in parentheses
# Procedure: Somatostatin analogs were compared to somatostatin in their ability to inhibit the release of growth hormone in pentobarbital stimulated rats; a modification of the procedure of Brazeau et al. Endocrinology, 94, 184-187 (1974) was employed. Rats were lightly etherized and sodium pentobarbital (17 mg./Kg. was injected into the exposed Saphenous vein; somatostatin or analog was simultaneously injected subcutaneously. After 15 minutes the animals were bled via the orbital sinus and blood collected for subsequent growth hormone analysis.
# (§1) Doses were randomized between groups of animals (6 rats/group). Potency values were determined by four, six, or eight point bioassays with somatostatin as the reference standard. Relative potency values were calculated by a relative potency formula for parallel line bioassays as described in Finney, D. J. Statistical Method in Biological Assay (Charles Griffin and Co., Ltd., London) Chap. 4 pp. 99-138 (1964).
# plasma glucagon = assay: Inhibition of glucagon: lowering of portal vein plasma glucagon in anesthetized rats; format: in vivo, rats (male Sprague-Dawley); conditions: somatostatin = 1; i.v. via external jugular vein, portal vein blood after 5 minutes; limits in parentheses
# Procedure: (§2) The relative potencies of somatostatin analogs on the lowering of plasma insulin and glucagon are determined by the following method:
# (§3) Analogs of somatostatin were compared to somatostatin in their ability to lower the levels of portal vein glucagon and insulin in anesthetized rats. Male Sprague-Dawley rats (Charles River CD) weighing 160-200 grams were anesthetized with urethane (150 mg./100 gm.) Saline or peptides were administered via the external jugular vein. After 5 minutes the portal vein was exposed and blood was collected via syringes containing 3 mg. EDTA and placed in chilled tubes containing 100 μl. of Trasylol (obtained from FBA Pharmaceuticals) for subsequent hormone analysis. Plasma levels of glucagon were determined by the method of Faloona, G. R., and Unger, R. H. "Glucagon" in Methods of Hormone Radioimmunoassay, eds. […] Plasma levels of insulin were determined by a modification of the procedure of Herbert, V., Lau, K. S. Gottlieb, C. […]
# as §1, with “4 pp. 99-138 (1964).” left out
# plasma insulin = assay: Inhibition of insulin: lowering of portal vein plasma insulin in anesthetized rats; format: in vivo, rats (male Sprague-Dawley); conditions: somatostatin = 1; i.v. via external jugular vein, portal vein blood after 5 minutes; limits in parentheses
# Procedure: as §2, §3
# as §1, with “4 pp. 99-138 (1964).” left out
# Rat pituicytes = assay: Growth hormone inhibition in vitro; format: cell-based; conditions: somatostatin = 1, 4 hours incubation, limits in parentheses
# Procedure: Rat pituicytes were isolated according to the procedures of Vale and Grant "In vitro Pituitary Hormone Secretion Assay for Hypophysiotropic Substances" in Methods in Enzymology. Vol. XXXVII, eds. O'Malley, B. W. and Hardman, J. G. (Academic Press, Inc., New York) pp. 5-93 (1975).
# After 4 days in culture, the cells were washed and incubated for 4 hours in Dulbecco-modified Eagle's medium in the presence or absence of graded doses of each analog or somatostatin. The medium was then collected for subsequent growth hormone determination by a double antibody radioimmunoassay for rat growth hormone.
# as §1
compound,measurement,setting,value
"C[C@H](N)C(=O)NCC(=O)N[C@H]1CSSC[C@@H](C(=O)O)NC(=O)[C@H](CO)NC(=O)[C@H]([C@@H](C)O)NC(=O)[C@H](Cc2ccccc2)NC(=O)[C@H]([C@@H](C)O)NC(=O)[C@H](CCCCN)NC(=O)[C@H](Cc2c[nH]c3ccccc23)NC(=O)[C@H](Cc2ccccc2)NC(=O)[C@H](Cc2ccccc2)NC(=O)[C@H](CC(N)=O)NC(=O)[C@H](CCCCN)NC1=O [(I), Somatostatin]","Titratable acid, percent change, during 0-30","[1]; sample 0-30 min, during treatment",-16%
same,"Total acid output, percent change, during 0-30","[1]; sample 0-30 min, during treatment, relative to placebo trial in the same animals",-89%
same,"Titratable acid, percent change, during 30-60","[1]; sample 30-60 min, during treatment",-17%
same,"Total acid output, percent change, during 30-60","[1]; sample 30-60 min, during treatment, relative to placebo trial in the same animals",-99%
same,"Titratable acid, percent change, post-treat 60-90","[1]; sample 60-90 min, post-treatment",-61%
same,"Total acid output, percent change, post-treat 60-90","[1]; sample 60-90 min, post-treatment, relative to placebo trial in the same animals",-93%
same,"Titratable acid, percent change, post-treat 90-120","[1]; sample 90-120 min, post-treatment",-41%
same,"Total acid output, percent change, post-treat 90-120","[1]; sample 90-120 min, post-treatment, relative to placebo trial in the same animals",-45%
same,"Inhibition of Pentobarbital Stimulated Growth Hormone Release In Vivo, potency relative to somatostatin",growth hormone release,1
same,"Inhibition of Glucagon, potency relative to somatostatin",plasma glucagon,1
same,"Inhibition of Insulin, potency relative to somatostatin",plasma insulin,1
same,"Growth Hormone Inhibition In Vitro, potency relative to somatostatin",Rat pituicytes,1
